Read-outs that look alike come from different tables or passages of the source. Non-standard residues stand in square brackets, D forms with d. Residues, ends and D or L forms follow the SMILES beside them. No end group written: not given here.
Legend:
[1] = system: gram-positive and gram-negative bacteria; conditions: cited from earlier work
From the text: We assessed the antimicrobial activity of the modified CLEC3A-derived peptides using an antimicrobial activity assay and determined their MIC50 (Figure 2). We used the well-investigated AMP LL-37 as a positive control. As negative controls, we used ST-16 (Ex1z), which corresponds to HT-16 with an abolished positive charge, and DK-29 (Ex2), which is solely the amphipathic α-helix of HT-47 without the positive charge of the N-terminus. […] First, we investigated the antimicrobial activity of the peptides modified from HT-16: RK-9 and ...

[2] = system: primary human cartilage cells; conditions: cited from earlier work
[3] = Biostability assay in murine serum; assay type: in vitro ADME, murine (C57BL6/N); conditions: 30 µM peptide, room temperature; for Time for which the peptide was detectable in murine serum: pooled murine serum (C57BL6/N), samples 5 min, 10 min, n = 3
Protocol: The peptides (HT-47, WRK-30, and dWRK-30) were mixed with pooled murine serum, obtained from C57BL6/N wildtype mice via cardiac puncture immediately after death by cervical dislocation (the procedure was approved by the local government authority LANUV under permit no. UniKöln_Anzeige§4.22.001), to a final concentration of 30 µM. In parallel, a control with water and pooled murine serum was prepared. Both mixtures were incubated at room temperature, and samples were taken at the time points indicated in Supplementary Table S3. The samples were immediately added to a Novex Tricine SDS Sample Buffer containing a NuPage Sample Reducing Agent and incubated at 85 °C for 2 min. Boiled samples were stored at 4 °C. After the collection of all time points, samples were separated into 10–20% Tricine Gels. Gels with HT-47 and WRK-30 were subsequently transferred onto PVDF membranes (0.2 µm pore size) and immunoblot analysis with 1:200 dilutions of a custom-ordered and affinity-purified rabbit anti-WRK-30 (Eurogentec, Seraing, Belgium) antibody was performed. Gels with dWRK-30 were stained with Coomassie brilliant blue.

MRSA = assay type: cell-based, methicillin-resistant Staphylococcus aureus (MRSA-43300)
Protocol: (§1) Pseudomonas aeruginosa (Psae-27853), Staphylococcus aureus (ATCC-29213), and methicillin-resistant Staphylococcus aureus (MRSA-43300) were used. Bacteria were cultivated in tryptic soy broth (TSB) (Merck, Darmstadt, Germany) at 37 °C and 225rpm or on TSB–agarose plates at 37 °C.
(§2) Bacteria were grown to an OD620 of 0.5, harvested by centrifugation, and washed with tris-glucose buffer (TG buffer: 10 mM tris, 5 mM glucose; pH = 7.4) (P. aeruginosa and S. aureus) or phosphate–glucose buffer (PG buffer: 10 mM K2HPO4, 5 mM glucose; pH = 7.4) (MRSA). Bacteria were adjusted to 2 × 10^6 colony forming units (CFU)/mL and were incubated in 1:2 dilutions for 2 h at 37 °C with CLEC3A-derived and modified CLEC3A-derived peptides in TG buffer or PG buffer. The known AMP LL-37 was used as a positive control, while the CLEC3A-derived peptides ST-16 (Ctrl 1) and DK-29 (Ctrl 2) and untreated bacteria were used as negative controls. The bacteria were then plated onto TSB–agarose plates in previously determined dilutions and cultured overnight at 37 °C. The number of grown colonies was determined with the ImageJ cell counter plugin and is presented as a percentage of the number of grown colonies from the untreated control. The minimal inhibitory concentration (MIC50) was defined as the concentration of antimicrobial peptide where only 50% of bacteria survived. Used peptide concentrations are provided in Supplementary Table S1.
(§3) Statistical analysis of results was performed with Prism 9.3.1 (471) (GraphPad, San Diego, CA, USA). All tables and graphs show calculated averages and standard deviations obtained from three individual experiments. Bar charts of the MIC50 include numerical values with confidence intervals (95%) as the legend. Statistical significance was determined with a paired ANOVA test followed by a Dunnett test and multiple comparisons, comparing each peptide with the respective parent peptide HT-16, HT-47, or WRK-30 as indicated in the figure captions.

[4] = system: NIH3T3 cells (murine fibroblasts); assay: Cytotoxicity assay (MTS); assay type: cell-based
Protocol: NIH3T3 cells (murine fibroblasts), obtained from Prof. Dr. Wielckens, were seeded and precultured overnight. For 24 h incubation with peptides, a density of 1 × 10^4 cells/well and for 96 h incubation with peptides a density of 5 × 10^3 cells/well was used. After preculturing, the culture medium was replaced and cells were incubated with a peptide-containing medium for 24 h and 96 h. Afterward, the peptide-containing medium was removed and cells were washed with PBS before adding CellTiter 96® AQueous One Solution (Promega, Madison, WI, USA) containing 3-(4,5-dimethylthiazol-2-yl)-5-(3-carboxymethoxyphenyl)-2-(4-sulfophenyl)-2H-tetrazolium (MTS) to the culture medium. Cells incubated with peptides for 24 h were incubated with MTS medium for 1 h at 37 °C, and absorbance was measured at 490 nm. Cells incubated with peptides for 96 h were incubated with MTS medium for 2 h at 37 °C before measuring the absorbance. Samples were measured in triplicates, and the cell viability of three individual experiments is presented as a percentage of the measured OD from the untreated control. As further controls, vancomycin (final concentration 7.35 µg/mL), colistin (final concentration 147 µg/mL), and 1% TritonX in culture medium were used. Used peptide concentrations are provided in Supplementary Table S2.

S. aureus = assay type: cell-based, Staphylococcus aureus (ATCC-29213); conditions: 2 h, pH 7.4
Protocol: as §1, §2, §3

P. aeruginosa = assay type: cell-based, Pseudomonas aeruginosa (Psae-27853); conditions: 2 h, pH 7.4
Protocol: as §1, §2, §3

[5] = HT-47: immunoblot (anti-WRK-30), 6 h, 8 h, dWRK-30: SDS-PAGE, Coomassie, 24 h, 96 h

Row | Compound | MRSA MIC50 (MRSA; 2 h, pH 7.4) [µM] | S. aureus MIC50 (S. aureus) [µM] | P. aeruginosa MIC50 (P. aeruginosa) [µM] | further results
1 | STSQLQAQQSSQQQVQ [ST-16, negative control, corresponds to HT-16 with abolished positive charge] |  |  |  | Antimicrobial activity of negative control peptides (in words) [1]: Neither ST-16 nor DK-29 display any antimicrobial activity
2 | HTSRLKARKHSKRRVRDKDGDLKTQIEKLWTEVNALKEIQALQTVCL [HT-47] | 9.88 ± 2.43 |  |  | Toxic effects to primary human cartilage cells [2]: no toxic effects; Time for which the peptide was detectable in murine serum [3, 5]: up to 8 h; Detection in murine serum after 24 h (in words) ([3]; pooled murine serum, immunoblot, 24 h (not shown)): disappeared
3 | WRKHSKRRVRGGGLKTQIEKLWTEVNALKEI [WRK-30] |  |  |  | Time for which the peptide was detectable in murine serum ([3]; immunoblot (anti-WRK-30), 30 min, 1 h): up to 30 min
4 | CC[C@H](C)[C@H](NC(=O)[C@H](CCCCN)NC(=O)[C@H](CCC(=O)O)NC(=O)[C@H](CCCCN)NC(=O)[C@H](CO)NC(=O)[C@H](CCCCN)NC(=O)[C@H](CCCNC(=N)N)NC(=O)[C@H](Cc1ccccc1)NC(=O)[C@H](Cc1ccccc1)NC(=O)[C@H](CC(=O)O)NC(=O)CNC(=O)[C@H](CC(C)C)NC(=O)[C@@H](N)CC(C)C)C(=O)NCC(=O)N[C@@H](CCCCN)C(=O)N[C@@H](CCC(=O)O)C(=O)N[C@@H](Cc1ccccc1)C(=O)N[C@@H](CCCCN)C(=O)N[C@@H](CCCNC(=N)N)C(=O)N[C@H](C(=O)N[C@H](C(=O)N[C@@H](CCC(N)=O)C(=O)N[C@@H](CCCNC(=N)N)C(=O)N[C@H](C(=O)N[C@@H](CCCCN)C(=O)N[C@@H](CC(=O)O)C(=O)N[C@@H](Cc1ccccc1)C(=O)N[C@@H](CC(C)C)C(=O)N[C@@H](CCCNC(=N)N)C(=O)N[C@@H](CC(N)=O)C(=O)N[C@@H](CC(C)C)C(=O)N[C@H](C(=O)N1CCC[C@H]1C(=O)N[C@@H](CCCNC(=N)N)C(=O)N[C@H](C(=O)N[C@@H](CCC(=O)O)C(=O)N[C@@H](CO)C(=O)O)[C@@H](C)O)C(C)C)[C@@H](C)CC)C(C)C)[C@@H](C)CC [LL-37, reference compound] |  |  |  | Cytotoxicity to NIH3T3 cells, 24 h (in words) ([4]; Figure 5A, 0.3, 3 and 30 µM peptide, 24 h, MTS, absorbance 490 nm, % of untreated control, n = 3): cytotoxic effects; MRSA MIC50 (MRSA; Figure 2c series, 2 × 10^6 CFU/mL, 2 h at 37 °C in PG buffer pH 7.4, plating and colony count, n = 3, ± confidence interval (95%), na: not applicable): 2.40 ± 0.42 µM; MRSA MIC50 (MRSA; Figure 3c series, 2 × 10^6 CFU/mL, 2 h at 37 °C in PG buffer pH 7.4, n = 3, ± confidence interval (95%), na: not applicable): 2.63 ± 1.21 µM; MRSA MIC50 (MRSA; Figure 8c series, 2 × 10^6 CFU/mL, 2 h at 37 °C in PG buffer pH 7.4, n = 3, ± confidence interval (95%)): 0.52 ± 0.64 µM
5 | WRKHSKRRVRDKDGDLKTQIEKLWTEVNALKEI [WRK-31] |  | 1.03 ± 0.30 |  | 
6 | WRKHSKRRVR [WRK-9] |  | 0.56 ± 0.72 | 0.96 ± 0.46 | 
7 | RKHSKRRVRDKDGDLKTQIEKLWTEVNALKEI [RK-31] |  | 4.85 ± 3.10 |  | 
8 | CC[C@@H](C)[C@@H](NC(=O)[C@@H](CCC(=O)O)NC(=O)[C@@H](CCCCN)NC(=O)[C@@H](CC(C)C)NC(=O)[C@@H](C)NC(=O)[C@@H](CC(N)=O)NC(=O)[C@H](NC(=O)[C@@H](CCC(=O)O)NC(=O)[C@H](NC(=O)[C@@H](Cc1c[nH]c2ccccc12)NC(=O)[C@@H](CC(C)C)NC(=O)[C@@H](CCCCN)NC(=O)[C@@H](CCC(=O)O)NC(=O)[C@H](NC(=O)[C@@H](CCC(N)=O)NC(=O)[C@H](NC(=O)[C@@H](CCCCN)NC(=O)[C@@H](CC(C)C)NC(=O)CNC(=O)CNC(=O)CNC(=O)[C@@H](CCCNC(=N)N)NC(=O)[C@H](NC(=O)[C@@H](CCCNC(=N)N)NC(=O)[C@@H](CCCNC(=N)N)NC(=O)[C@@H](CCCCN)NC(=O)[C@@H](CO)NC(=O)[C@@H](Cc1c[nH]cn1)NC(=O)[C@@H](CCCCN)NC(=O)[C@@H](CCCNC(=N)N)NC(=O)[C@H](N)Cc1c[nH]c2ccccc12)C(C)C)[C@H](C)O)[C@H](C)CC)[C@H](C)O)C(C)C)C(=O)O [dWRK-30] (H-[dW][dR][dK][dH][dS][dK][dR][dR][dV][dR]GGG[dL][dK][dT][dQ][dI][dE][dK][dL][dW][dT][dE][dV][dN][dA][dL][dK][dE][dI]-OH) | 2.34 ± 0.39 | 0.66 ± 0.36 | 1.46 ± 1.55 | Time for which the peptide was detectable in murine serum [3, 5]: up to 96 h
9 | RKHSKRRVRGGGLKTQIEKLWTEVNALKEI [RK-30] | 4.51 ± 3.81 | 0.63 ± 0.68 | 2.64 ± 1.79 | 
10 | DKDGDLKTQIEKLWTEVNALKEIQALQTVCL [DK-29, negative control, solely the amphipathic α-helix of HT-47 without the positive charge of the N-terminus] |  |  |  | Antimicrobial activity of negative control peptides (in words) [1]: Neither ST-16 nor DK-29 display any antimicrobial activity
11 | RKHSKRRVR [RK-9] |  | 1.62 ± 2.67 | 4.17 ± 0.69 | 
12 | HTSRLKARKHSKRRVR [HT-16] | 9.25 ± 6.25 | 0.24 ± 0.13 | 0.51 ± 0.11 | Toxic effects to primary human cartilage cells [2]: no toxic effects; Cytotoxicity towards murine fibroblasts, overall statement [4]: does not show any signs of cytotoxicity

Reference: paper PMC10604565, “Modified CLEC3A-Derived Antimicrobial Peptides Lead to Enhanced Antimicrobial Activity against Drug-Resistant Bacteria” (Antibiotics, 2023)
